We go through 34 sequences from the supplement of paper PMC11208160.
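Further: IS621 bridge recombinase in Escherichia coli cells against a fixed T5 target plasmid.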

This series in a line: recombinant UMI read abundance after kanamycin selection (control-corrected) (log10(CPM+1)); higher = more efficient recombination; extreme values may be limits of the assay; sequences stand for … in AGTGCAGAGAAAATCGGCCAGTTTTCTCTGCCTGCAGTCCGCATGCCGTGGGACCCCTTGGGTTCTAACCTGTTGCCTAGATTTATGCAGCGGACTGCCTTTCTCCCAAAGTGATAAACCGG…AGGTTGGTTTCACT; site = the 11-nt donor. In short, it runs like this:
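Values are reported as log10(CPM+1), obtained by converting sequencing counts to CPM, averaging replicates and scaling by control-derived factors. The counts came from recombinant UMIs amplified by PCR across the donor–target junction. These UMIs came from a pooled Escherichia coli screen of donor and donor-binding-loop pairs for the IS621 bridge recombinase, plated with IPTG (0.07 mM) plus kanamycin or left unselected, in two replicates each.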
With “TACTTGACATGGACCGGTTTTCCCGGTAATCCGTATTTGCT (site TACTTTACTAG)”, the “recombinant UMI read abundance (log10)” value was found to be 0.
For “TACTTGACATGGACCGGTTTTCCCGGTAATCCGTATTTGCT (site TAGTTGACTAG)” the value was 0.00537; for “TACTTGACATGGACCGGTTTTCCCGGTAATCCGTATTTGCT (site TATTTGACTAG)”, 0.0574; for “TACTTGACATGGACCGGTTTTCCCGGTAATCCGTATTTGCT (site TCCTTGACTAG)”, 0.255.
As to “TACTTGACATGGACCGGTTTTCCCGGTAATCCGTATTTGCT (site TGCTTGACTAG)”, the “recombinant UMI read abundance (log10)” value was determined as 0.0612.
With “TACTTGACATGGACCGGTTTTCCCGGTAATCCGTATTTGCT (site TTCTTGACTAG)”, the “recombinant UMI read abundance (log10)” value was 0.
On to “TACTTGCCATGGACCGGTTTTCCCGGTAATCCGTATTTGCT (site TACTTGACTAG)”, for which the “recombinant UMI read abundance (log10)” value is 0.00966.
For the sequence “TACTTGCCATGGACCGGTTTTCCCGGTAATCCGTATTTGCT (site TACTTGCCTAG)”, the “recombinant UMI read abundance (log10)” value was 0.597.
Turning to “TACTTGCCATGGACCGGTTTTCCCGGTAATCCGTATTTGCT (site TACTTGGCTAG)”, the “recombinant UMI read abundance (log10)” value stood at 0.00743.
As to “TACTTGCCATGGACCGGTTTTCCCGGTAATCCGTATTTGCT (site TACTTGTCTAG)”, the “recombinant UMI read abundance (log10)” value worked out at 0.383.
With “TACTTGGCATGGACCGGTTTTCCCGGTAATCCGTATTTGTG (site TAATTGGCTCA)”, the “recombinant UMI read abundance (log10)” value was found to be 0.0141.
On to “TACTTGGCATGGACCGGTTTTCCCGGTAATCCGTATTTGTG (site TACTTGGCTCA)”, for which the “recombinant UMI read abundance (log10)” value amounted to 0.305.
For “TACTTGGCATGGACCGGTTTTCCCGGTAATCCGTATTTGTG (site TAGTTGGCTCA)” the value was 0.017; for “TACTTGGCATGGACCGGTTTTCCCGGTAATCCGTATTTGTG (site TATTTGGCTCA)”, 0.00802; for “TACTTGTCATGGACCGGTTTTCCCGGTAATCCGTATTTGCT (site TACTTGACTAG)”, 0.
Take “TACTTGTCATGGACCGGTTTTCCCGGTAATCCGTATTTGCT (site TACTTGCCTAG)”: the “recombinant UMI read abundance (log10)” value is 0.649.
For the sequence “TACTTGTCATGGACCGGTTTTCCCGGTAATCCGTATTTGCT (site TACTTGGCTAG)”, the “recombinant UMI read abundance (log10)” value worked out at 0.00306.
In the case of “TACTTGTCATGGACCGGTTTTCCCGGTAATCCGTATTTGCT (site TACTTGTCTAG)”, the “recombinant UMI read abundance (log10)” value worked out at 1.51.
As for “TACTTTCCATGGACCGGTTTTCCCGGTAATCCGTATTTGCC (site TACTTTCCTGG)”, the “recombinant UMI read abundance (log10)” value was 0.
For “TAGAAAACATGGACCGGTTTTCCCGGTAATCCGTATTTGCA (site TAGAAAACTTG)”, the “recombinant UMI read abundance (log10)” value is 1.54.
Consider “TAGAAAACATGGACCGGTTTTCCCGGTAATCCGTATTTGCA (site TAGAACACTTG)”, for which the “recombinant UMI read abundance (log10)” value worked out at 1.57.
As for “TAGAAAACATGGACCGGTTTTCCCGGTAATCCGTATTTGCA (site TAGAAGACTTG)”, the “recombinant UMI read abundance (log10)” value turned out to be 0.00894.
In the case of “TAGAAAACATGGACCGGTTTTCCCGGTAATCCGTATTTGCA (site TAGAATACTTG)”, the “recombinant UMI read abundance (log10)” value turned out to be 0.
With “TAGAAGACATGGACCGGTTTTCCCGGTAATCCGTATTTGCA (site TAGAAAACTTG)”, the “recombinant UMI read abundance (log10)” value was 0.
“TAGAAGACATGGACCGGTTTTCCCGGTAATCCGTATTTGCA (site TAGAACACTTG)”: the “recombinant UMI read abundance (log10)” value is 0.985.
In the case of “TAGAAGACATGGACCGGTTTTCCCGGTAATCCGTATTTGCA (site TAGAAGACTTG)”, the “recombinant UMI read abundance (log10)” value came to 2.51.
As for “TAGAAGACATGGACCGGTTTTCCCGGTAATCCGTATTTGCA (site TAGAATACTTG)”, the “recombinant UMI read abundance (log10)” value is 0.
As for “TAGAATACATGGACCGGTTTTCCCGGTAATCCGTATTTGCG (site TAGAATACTAG)”, the “recombinant UMI read abundance (log10)” value came to 0.
For the sequence “TAGAATACATGGACCGGTTTTCCCGGTAATCCGTATTTGCG (site TAGAATACTCG)”, the “recombinant UMI read abundance (log10)” value amounted to 2.06.
For “TAGAATACATGGACCGGTTTTCCCGGTAATCCGTATTTGCG (site TAGAATACTGG)” the value was 0; for “TAGAATACATGGACCGGTTTTCCCGGTAATCCGTATTTGCG (site TAGAATACTTG)”, 0.239.
With “TAGAATTCATGGACCGGTTTTCCCGGTAATCCGTATTTGTA (site TAGAATTCTTA)”, the “recombinant UMI read abundance (log10)” value turned out to be 1.67.
Take “TAGACTACATGGACCGGTTTTCCCGGTAATCCGTATTTGCA (site TAGAATACTTG)”: the “recombinant UMI read abundance (log10)” value came out at 0.379.
With “TAGACTACATGGACCGGTTTTCCCGGTAATCCGTATTTGCA (site TAGACTACTTG)”, the “recombinant UMI read abundance (log10)” value amounted to 1.62.
